Data on 24 compounds can be found in ChEMBL document CHEMBL1153482, “Design of selective Cathepsin inhibitors” (Bioorg Med Chem Lett, 2009).

For one test, the target named is T1, Cathepsin L2 (Homo sapiens, UniProt O60911).
T1 sequence (O60911 whole entry): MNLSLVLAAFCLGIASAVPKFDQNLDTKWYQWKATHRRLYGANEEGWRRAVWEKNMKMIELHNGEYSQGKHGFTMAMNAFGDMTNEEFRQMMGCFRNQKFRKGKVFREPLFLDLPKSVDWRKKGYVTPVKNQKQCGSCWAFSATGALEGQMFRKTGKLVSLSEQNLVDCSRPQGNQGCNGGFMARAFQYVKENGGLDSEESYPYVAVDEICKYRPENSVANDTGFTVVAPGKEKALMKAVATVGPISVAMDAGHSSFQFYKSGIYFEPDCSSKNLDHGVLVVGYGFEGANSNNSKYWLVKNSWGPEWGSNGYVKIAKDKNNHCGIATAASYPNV
The test is described as follows: Inhibition of cathepsin L2 assessed as inhibition of fluorogenic substrate cleavage.

A further test concerns the target Cathepsin B (Homo sapiens, UniProt P07858). The test can be described thus: Inhibition of human liver cathepsin B assessed as inhibition of fluorogenic substrate cleavage.
A further test deals with Procathepsin L (Homo sapiens, UniProt P07711). The test can be described thus: Inhibition of cathepsin L assessed as inhibition of fluorogenic substrate cleavage.
Another test concerns the target Cathepsin S (Homo sapiens, UniProt P25774). The test can be described thus: Inhibition of cathepsin S assessed as inhibition of fluorogenic substrate cleavage.
In another test the target is T2, Cathepsin K (Homo sapiens, UniProt P43235).
T2 sequence (P43235 whole entry): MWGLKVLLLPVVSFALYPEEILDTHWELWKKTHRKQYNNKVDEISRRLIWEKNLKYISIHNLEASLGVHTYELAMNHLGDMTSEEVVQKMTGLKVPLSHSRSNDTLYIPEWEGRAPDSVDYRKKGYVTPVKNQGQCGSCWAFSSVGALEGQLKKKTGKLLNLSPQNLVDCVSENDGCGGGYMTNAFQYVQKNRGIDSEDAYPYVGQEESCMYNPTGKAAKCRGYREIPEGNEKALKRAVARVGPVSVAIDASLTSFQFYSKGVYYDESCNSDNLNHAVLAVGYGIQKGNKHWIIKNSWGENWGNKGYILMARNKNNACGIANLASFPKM
The test is described as follows: Inhibition of cathepsin K assessed as inhibition of fluorogenic substrate cleavage.

Sequence of Procathepsin L (P07711 whole entry): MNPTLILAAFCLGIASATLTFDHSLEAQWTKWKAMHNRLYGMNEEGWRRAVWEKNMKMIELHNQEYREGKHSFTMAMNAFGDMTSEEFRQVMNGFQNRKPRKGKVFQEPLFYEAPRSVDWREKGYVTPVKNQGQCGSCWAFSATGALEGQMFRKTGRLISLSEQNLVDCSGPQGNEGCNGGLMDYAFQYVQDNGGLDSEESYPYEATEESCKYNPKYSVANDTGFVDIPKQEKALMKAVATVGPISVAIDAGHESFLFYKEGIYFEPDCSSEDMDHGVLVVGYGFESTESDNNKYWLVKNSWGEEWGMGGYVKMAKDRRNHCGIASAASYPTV
Sequence of Cathepsin S (P25774 whole entry): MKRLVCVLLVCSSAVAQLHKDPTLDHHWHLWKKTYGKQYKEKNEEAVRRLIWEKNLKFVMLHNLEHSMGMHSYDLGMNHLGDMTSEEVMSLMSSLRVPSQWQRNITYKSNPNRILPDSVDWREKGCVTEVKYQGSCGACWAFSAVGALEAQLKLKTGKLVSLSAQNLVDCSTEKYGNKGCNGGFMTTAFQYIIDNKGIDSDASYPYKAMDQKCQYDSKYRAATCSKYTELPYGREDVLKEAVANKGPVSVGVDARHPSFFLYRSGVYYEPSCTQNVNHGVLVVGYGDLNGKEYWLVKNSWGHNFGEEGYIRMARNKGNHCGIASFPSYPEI

As to `N#CCNC(=O)[C@H](Cc1cccc(-c2cncnc2)c1)NC(=O)c1ccccc1`, the IC50 at Cathepsin L2 is greater than 7940 nM; at Cathepsin B, greater than 10000 nM; at Procathepsin L it was 3980 nM; on Cathepsin S it was 316 nM; at Cathepsin K, greater than 7940 nM.

In the case of `Cc1nnc(-c2cccc(C[C@H](NC(=O)c3cc(C(C)(C)C)nn3C)C(=O)NCC#N)c2)s1`, the IC50 at Cathepsin L2 was 3.16 nM; on Cathepsin B, greater than 10000 nM; on Procathepsin L, 126 nM; at Cathepsin S, 316 nM; on Cathepsin K, 3160 nM.

As for `Cn1nccc1-c1cccc(C[C@H](NC(=O)c2ccccc2)C(=O)NCC#N)c1`, the IC50 at Cathepsin L2 is 3160 nM; on Cathepsin B, 7940 nM; at Procathepsin L, 3160 nM; on Cathepsin S, 316 nM; on Cathepsin K, greater than 10000 nM.

`N#CCNC(=O)[C@H](Cc1cccc(-c2cccnn2)c1)NC(=O)c1ccccc1`: the IC50 on Cathepsin L2 was 63.1 nM; on Cathepsin B it was 6310 nM; at Procathepsin L it was 1260 nM; on Cathepsin S, 7.94 nM; on Cathepsin K it was greater than 6310 nM.

For `N#CCNC(=O)[C@H](Cc1cccc(-c2ccn[nH]2)c1)NC(=O)c1ccccc1`, the IC50 is 3980 nM on Cathepsin L2; 5010 nM at Cathepsin B; 1580 nM at Procathepsin L; 316 nM at Cathepsin S; greater than 10000 nM at Cathepsin K.

For the compound `N#CCNC(=O)[C@H](Cc1cccc(-c2cn[nH]c2)c1)NC(=O)c1ccccc1`, the IC50 is 1580 nM on Cathepsin L2; 7940 nM at Cathepsin B; 794 nM at Procathepsin L; 79.4 nM at Cathepsin S; greater than 10000 nM at Cathepsin K.

`N#CCNC(=O)[C@H](Cc1cccc(-c2cccnc2)c1)NC(=O)c1ccccc1`: the IC50 was 3980 nM on Cathepsin L2; 7940 nM on Cathepsin B; 2000 nM on Procathepsin L; 126 nM at Cathepsin S; greater than 7940 nM at Cathepsin K.

Regarding `Cn1nc(C(C)(C)C)cc1C(=O)N[C@@H](Cc1cccc(-c2nnc(CO)o2)c1)C(=O)NCC#N`, the IC50 was 7.94 nM on Cathepsin L2; greater than 10000 nM on Cathepsin B; 6.31 nM at Procathepsin L; 63.1 nM on Cathepsin S; 100 nM on Cathepsin K.

Take `N#CCNC(=O)[C@H](Cc1cccc(-c2ccccn2)c1)NC(=O)c1ccccc1`: the IC50 on Cathepsin L2 was greater than 10000 nM; on Cathepsin B it was 6310 nM; on Procathepsin L, 3160 nM; at Cathepsin S, 631 nM; at Cathepsin K, greater than 10000 nM.

In the case of `N#CCNC(=O)[C@H](Cc1cccc(-c2nnco2)c1)NC(=O)c1ccccc1`, the IC50 is 158 nM on Cathepsin L2; greater than 10000 nM at Cathepsin B; 501 nM at Procathepsin L; 20 nM on Cathepsin S; 1260 nM on Cathepsin K.

Take `N#CCNC(=O)[C@H](Cc1cccc(-c2ccnnc2)c1)NC(=O)c1ccccc1`: the IC50 was greater than 10000 nM on Cathepsin L2; greater than 10000 nM at Cathepsin B; greater than 7940 nM at Procathepsin L; 794 nM on Cathepsin S; greater than 10000 nM at Cathepsin K.

As for `Cn1cc(-c2cccc(C[C@H](NC(=O)c3cc(C(C)(C)C)nn3C)C(=O)NCC#N)c2)cn1`, the IC50 at Cathepsin L2 is 158 nM; at Cathepsin B it was greater than 10000 nM; on Procathepsin L, 15.8 nM; at Cathepsin S it was 316 nM; at Cathepsin K it was 6310 nM.

For the compound `N#CCNC(=O)[C@H](Cc1cccc(-c2nncs2)c1)NC(=O)c1ccccc1`, the IC50 at Cathepsin L2 is 25.1 nM; on Cathepsin B, greater than 10000 nM; at Procathepsin L, 200 nM; on Cathepsin S it was 2.51 nM; on Cathepsin K, 631 nM.

For `Cn1nc(C(C)(C)C)cc1C(=O)N[C@@H](Cc1cccc(-c2nnco2)c1)C(=O)NCC#N`, the IC50 is 20 nM at Cathepsin L2; greater than 10000 nM on Cathepsin B; 15.8 nM at Procathepsin L; 63.1 nM at Cathepsin S; 126 nM on Cathepsin K.

Turning to `Cn1nc(C(C)(C)C)cc1C(=O)N[C@@H](Cc1cccc(Cl)c1)C(=O)NCC#N`, the IC50 was 200 nM on Cathepsin L2; 6310 nM on Cathepsin B; 12.6 nM on Procathepsin L; 1000 nM at Cathepsin S; 3160 nM on Cathepsin K.

With `Cc1nnc(-c2cccc(C[C@H](NC(=O)c3cc(C(C)(C)C)nn3C)C(=O)NCC#N)c2)o1`, the IC50 at Cathepsin L2 is 6.31 nM; at Cathepsin B it was greater than 10000 nM; on Procathepsin L, 5.01 nM; on Cathepsin S, 79.4 nM; on Cathepsin K it was 63.1 nM.

In the case of `Cn1cc(-c2cccc(C[C@H](NC(=O)c3ccccc3)C(=O)NCC#N)c2)cn1`, the IC50 on Cathepsin L2 is 1580 nM; on Cathepsin B it was 6310 nM; on Procathepsin L it was 501 nM; on Cathepsin S, 100 nM; at Cathepsin K it was greater than 10000 nM.

Turning to `N#CCNC(=O)[C@H](Cc1cccc(Cl)c1)NC(=O)c1ccccc1`, the IC50 on Cathepsin L2 was 794 nM; on Cathepsin B, 5010 nM; on Procathepsin L, 251 nM; at Cathepsin S, 126 nM; at Cathepsin K, 3160 nM.

With `Cc1cccc(C[C@H](NC(=O)c2cc(C(C)(C)C)nn2C)C(=O)NCC#N)c1`, the IC50 is 398 nM at Cathepsin L2, 3980 nM on Cathepsin B, 794 nM on Cathepsin S and 2510 nM on Cathepsin K.

Regarding `COCc1nnc(-c2cccc(C[C@H](NC(=O)c3cc(C(C)(C)C)nn3C)C(=O)NCC#N)c2)o1`, the IC50 at Cathepsin L2 was 2 nM; at Cathepsin B, greater than 10000 nM; on Procathepsin L, 3.98 nM; on Cathepsin S, 79.4 nM; on Cathepsin K it was 126 nM.

Regarding `N#CCNC(=O)[C@H](Cc1cccc(-c2ccncc2)c1)NC(=O)c1ccccc1`, the IC50 at Cathepsin L2 is 3160 nM; at Cathepsin B, greater than 10000 nM; on Procathepsin L, 1580 nM; on Cathepsin S, 251 nM; at Cathepsin K it was greater than 10000 nM.

On to `Cn1nc(C(C)(C)C)cc1C(=O)N[C@@H](Cc1cccc(-c2nncs2)c1)C(=O)NCC#N`, for which the IC50 on Cathepsin L2 was 6.31 nM; on Cathepsin B, greater than 10000 nM; at Procathepsin L, 5.01 nM; on Cathepsin S, 15.8 nM; on Cathepsin K it was 126 nM.

On to `Cn1nc(C(C)(C)C)cc1C(=O)N[C@@H](Cc1cccc(-c2nnc(CCN)o2)c1)C(=O)NCC#N`, for which the IC50 was 100 nM at Cathepsin L2; 6310 nM on Cathepsin B; 1.26 nM on Procathepsin L; 63.1 nM at Cathepsin S; 158 nM at Cathepsin K.

For the compound `Cn1nc(C(C)(C)C)cc1C(=O)N[C@@H](Cc1cccc(-c2nnc(CN)o2)c1)C(=O)NCC#N`, the IC50 on Cathepsin L2 is 39.8 nM; at Cathepsin B, 3980 nM; at Procathepsin L, 2 nM; on Cathepsin S, 200 nM; at Cathepsin K it was 1000 nM.
